Source: patent US12582616B2, “Molecular targets for modulation of dissociative and associative states” (The Board of Trustees of the Leland Stanford Junior …, priority 2020, dated 2026)
“Also recorded” adds a separate entry of the source.

How the values were obtained:
[1] = tested on: retrosplenial cortex (RSP); assay: Two-photon imaging of retrosplenial cortex; type: in vivo, mouse
Protocol: Mice were anesthetized with isoflurane and the skull above retrosplenial cortex was removed and replaced with a 7 mm circular glass coverslip. For layer 1 experiments, Thy1GcaMP6s mice were used. For layer 2/3 experiments, Cux2-CreER; Ai148 mice were used (tamoxifen dissolved in corn oil was injected intraperitoneally at 0.1 mg/g at least 2 weeks prior to imaging). For layer 5 experiments, Rbp4-Cre mice were injected locally in retrosplenial with 800 nL AAVdj-Ef1a-DIO-GCaMP6f (titer 5E12) at stereotactic coordinates (−3AP, 0.5ML, −0.6DV). Mice were given >=1 week to recover before imaging. Awake, head-fixed imaging was performed on a standard two photon microscope (NeuroLabWare, Los Angeles, CA). A 16x 0.8 NA Nikon objective was immersed in clear ultrasound gel for imaging (Aquasonic, Parker Laboratories); frame rate of 30 Hz. Although we observed oscillations in RSP with 50 mg/kg, we were concerned that 50 mg/kg may be too low a dose to sensitively detect a potentially weaker signal in visual cortex or layer 2/3, and so we used 80 mg/kg in these experiments.
Two-photon tiff stack videos were registered to the average image using the TurboReg ImageJ plug-in using rigid body transformations. […] Contaminating neuropil signal was estimated from an annulus surrounding each soma mask and removed using the function F(t)=Fsoma(t)-0.3*Fneuropil(t), where Fsoma(t) is the somatic DF/F and Fneuropil(t) is the DF/F from an annulus 4 pixels wide surrounding each soma mask. The resulting traces were detrended and z-scored. The full frame fluorescence (used for quantifying layer 1 neuropil oscillations) was computed by summing all of the pixels in each frame on each time point, and then computing DF/F the same way, with no neuropil subtraction step.
Each trace (corresponding to either a fiber photometry signal, a cellular two-photon signal, a widefield regional centroid, a widefield pixel, an sEEG trace, or a smoothed spike rate Neuropixels trace) was z-scored, and the power spectral density (PSD) was then estimated using Welch's method (pwelch( ) in Matlab), with a window size of 10*fs (15*fs for human sEEG) where fs is the sampling rate of the signal. The average band power within a specified band (i.e. 1-3 Hz) was then computed by integrating the PSD estimate (bandpower in Matlab). For displaying the traces of individual cells, traces were each zscored by subtracting the mean value of the trace (across the whole recorded time window) and dividing by the standard deviation of the trace. Unless otherwise indicated, the PSD was computed across the time window from minutes 10 to 11 post-injection.

[2] = tested on: mice; assay: Resident-intruder social interaction assay; type: in vivo, mouse; conditions: ketamine, both channel-knockouts vs wild-type
Protocol: Social Interaction Assay: Resident-intruder social interaction was recorded for two minutes. Interactions were defined as close physical proximity behaviors, including sniffing, touching, and following. […] Illumination began 30 seconds before the same-sex intruder mouse was introduced.

[3] = tested on: retrosplenial cortex (RSP); assay: Retrosplenial gene disruption (HCN1, GRIN1) and fiber photometry; type: in vivo, mouse
Protocol: A 405 nm and 470 nm LED illumination (Thorlabs) was combined (425 nm longpass, Thorlabs DMLP425) and coupled into a fiber optic patch cord (400 μm diameter, 0.48 NA, Doric Lenses) using a longpass dichroic (505 nm, Thorlabs DMLP505) and a fixed-focused coupler/collimator with a standard FC connector (F240FC-A, NA 0.51, f=7.9 mm)^47,48. Each illumination channel was frequency modulated using the sync output from a lock-in amplifier (SR810 DSP, Stanford Research Systems).
Analysis was performed using custom MATLAB (MathWorks) scripts. Widefield imaging videos were registered to a 2D top-projection atlas generated from the annotated Allen Brain Atlas volume, version CCFv2, in MATLAB (MathWorks), using an affine transformation computed from four manually selected control points. Each video was DF/F normalized, using the median for each pixel over the entire time series as F. The 410 nm channel was then temporally smoothed using a moving average (width=400 ms). The smoothed 410 nm DF/F signal for each pixel was regressed onto the 488 nm DF/F signal for the corresponding pixel, and the regression coefficients were used to scale the 410 nm channel to the 488 nm channel. This scaled 410 nm DF/F signal was then subtracted from the 488 nm DF/F signal to produce a normalized signal for each pixel. For quantification, activity traces were extracted from points centered in five cortical regions (visual, somatosensory, parietal, motor, retrosplenial) on the left hemisphere of the brain. The video data was Gaussian smoothed spatially (radius=2 pixels). Similarly, for fiber photometry recordings, the 410 nm signal was regressed onto the 488 nm signal, the 410 nm signal was scaled by the regression coefficients, and then subtracted from the 488 nm signal.
Stereotaxic Surgery: Adult male and female HCN1^f/f, NR1^f/f, or wildtype C57/BI6 were injected bilaterally in two retrosplenial locations (AP −3.1 and −3.4, ML+/−0.5, DV −0.5) with 1 uL of AAV8-Ef1 a-mCherry-IRES-Cre (titer 5E11) and AAVdj-Ef1a-DIO-GCaMP6m (titer 1E13). A 400-micron optical fiber was implanted over one injection location. […]

[4] = tested on: mice; assay: Observation for seizure-like behavior after dissociative doses; type: in vivo, mouse; conditions: dissociative doses of ketamine
From the text: One characteristic of seizures is increased synchrony. While the ketamine-induced rhythm involved increased synchrony in neuronal firing, the initiation, spread, maintenance/termination, and behavior were distinguishable from typical seizures.

[5] = tested on: humans; conditions: human; cited from earlier work
[6] = tested on: mice; assay: Hot plate test
Protocol: Hot Plate Test: Mice were placed on the hot plate (Bioseb), which was set to 55° C. and surrounded by a clear circular perimeter. Mouse activity was recorded using two cameras from different angles. The experiment ended when the mouse jumped to escape or 90 seconds had elapsed. Care was taken to clean and dry the hot plate apparatus between animals. For optogenetic experiments, mice were connected to patch cords and then returned to a holding cage. Illumination began 30 seconds before mice were placed on the hot plate.

[7] = tested on: retrosplenial cortex (RSP); assay: Widefield imaging of cortical activity in GCaMP6s mice
From the text: We recorded multiregional neuronal activity by leveraging widefield microscopy, a cleared skull preparation, and atlas registration in GCaMP6s-expressing mice (FIGS. 1A-1C)^6,8,15.
As described^8, mice were anesthetized with isoflurane, the scalp was removed, the skull cleaned and dried, and a custom head-plate was cemented to contacts over the cerebellum and in front of the olfactory bulb. The skull was then covered in a thin layer of cyanoacrylate glue (Apollo 2000, Cyberbond), clear dental acrylic (Ortho-Jet, Lang Dental), and clear nail polish (Electron Microscopy Services). […] (0.1 mg/kg) was injected subcutaneously for pain management. […] Imaging was performed on a custom-built fluorescence microscope designed for high light collection efficiency and large field of view. […] Alternating 410 nm and 488 nm illumination for non-Ca^2+ dependent artifact removal was controlled using a microcontroller (Arduino) slaved to the frame output trigger of the camera.
Each trace (corresponding to either a fiber photometry signal, a cellular two-photon signal, a widefield regional centroid, a widefield pixel, an sEEG trace, or a smoothed spike rate Neuropixels trace) was z-scored, and the power spectral density (PSD) was then estimated using Welch's method (pwelch( ) in Matlab), with a window size of 10*fs (15*fs for human sEEG) where fs is the sampling rate of the signal. The average band power within a specified band (i.e. 1-3 Hz) was then computed by integrating the PSD estimate (bandpower in Matlab). […] Unless otherwise indicated, the PSD was computed across the time window from minutes 10 to 11 post-injection.

[8] = 50 mg/kg ketamine, control mice of knockout experiment

In the case of `CNC1(c2ccccc2Cl)CCCCC1=O` (stereo not drawn) [ketamine], the “oscillation and population synchrony in layer 2/3 RSP neurons” value ([1]; Cux2-CreER mice, after ketamine) is reported as “neither oscillating neurons nor population synchrony were observed”, the “synchronous activity in layer 5 RSP neurons” value ([1]; Rbp4-Cre mice, after ketamine) is reported as “exhibited synchronous activity” and the “spread of ketamine-rhythm across layers and regions” value ([1]; Supplementary Note 2) is reported as “did not spread beyond layer 5 neurons in retrosplenial cortex”. For the same compound, the “oscillation in superficial neuropil, RSP vs neighboring visual cortex” value ([1]; two-photon, cranial window, 80 mg/kg) was “observed the oscillation in RSP but not neighboring visual cortex”, the resident-intruder social interactions [2] was “modestly-recovered” and the “ketamine-induced RSP oscillation” value ([3]; local GRIN1 (NMDAR) knockout in RSP) was “significantly diminished; also recorded: partially attenuated; also recorded: Reduced ketamine-induced oscillation-power”. For the same compound, the “ketamine-induced RSP oscillation” value ([3]; local HCN1 knockout in RSP) was “significantly diminished; also recorded: selectively abolished both the ketamine-induced rhythm and dissociation-like behavioral effects; also recorded: no longer induced the deep retrosplenial rhythm; also recorded: Reduced ketamine-induced oscillation-power”, the “ketamine-induced RSP oscillation” value ([3]; wild-type) was “preserved in wild-type” and the “seizure-like signs (rigidity, convulsive movements, absence-like states, salivation/rearing/falling)” value [4] was “no rigidity, convulsive movements, absence-like states, or salivation/rearing/falling were observed”. For the same compound, the “dose at which humans consistently report potent dissociation” value [5] was 2 to 3 mg/kg, the “typical dose for anti-depressant effects” value [5] was 0.3 to 1 mg/kg and the “affective paw-licking, hot plate” value ([6]; 50 mg/kg ketamine, RSP Cre-virus in HCN1-KO mice) was “strikingly restored affective paw-licking”. For the same compound, the “affective paw-licking, hot plate” value [6, 8] was “abolished affective paw-licking”, the “reflexive paw-flicks, hot plate” value [6, 8] was “preserving reflexive paw-flicks” and the “affective/emotional defensive behavior (paw-lick), hot plate” value ([6]; ketamine 25 and 50 mg/kg) was “abolished affective/emotional”. For the same compound, the “motivational defensive behavior (jump-to-escape), hot plate” value ([6]; ketamine 25 and 50 mg/kg) was “abolished”, the “reflexive responses (paw-flick), hot plate” value ([6]; ketamine dose series up to 50 mg/kg) was “did not reduce reflexive responses” and the affective behavior ([6]; ketamine, GRIN1 knockouts) was “without recovery of affective behavior”. For the same compound, the dissociation-like behavioral effects ([6]; ketamine, HCN1 channels removed from retrosplenial cortex) was “selectively abolished both the ketamine-induced rhythm and dissociation-like behavioral effects; also recorded: did not fully elicit the dissociation-like behavioral effects”, the “magnitude of RSP rhythm on repeated days” value ([7]; five consecutive days) was “exhibited similar magnitude across five consecutive days” and the “1-3 Hz oscillation localized to retrosplenial cortex (RSP), widefield imaging” value ([7]; i.p. injection, ketamine 50 mg/kg) was “a 1-3 Hz oscillation emerged in retrosplenial cortex (RSP), but not in any other cortical region”.
